Reference: patent US5853699A, “Use of tetra azacycle complexes as x-ray diagnostic agents for the liver and gallbladder” (priority 1995, dated 1998)
Several values for one entry are separate records, joined by “and”; a condition that tells them apart may be missing. Identical values can stand only once. Like-named read-outs stand apart in the source and are kept apart here.

Experiments:
mice = test: acute toxicity (LD50) after one-time intravenous administration to mice; assay type: in vivo, mouse (NMRI (SPF)); conditions: mice (NMRI), 2 ml/minutes, deaths up to 7 days
Protocol: Study of acute toxicity (LD50) after one-time intravenous administration to mice
The contrast medium to be tested was administered to the mice in individual restraining cages (strain: NMRI (SPF); cultivator: Schering; average weight: 20 g; same sex distribution) into one of the caudal veins at a rate of 2 ml/minutes and at different dosage levels. The number of animals that died up to a fixed time was determined (3 hours, 24 hours, 3 days and 7 days).

[1] = density values of samples measured in a water phantom in a computer tomograph (137 kV, 100 mA); assay type: physicochemical
Protocol: 3,6,9-Triaza-3,6,9-tris-(carboxymethyl)-4-(4-ethoxybenzyl)-undecanedioic acid
Disodium salt was complexed with different X-ray-absorbing metal ions and then in the case of differing concentration, the density values of the samples were measured in a water phantom since it approximately corresponded in dimensions to those of a human abdomen.

liver [2] = conditions: monkey; cited from earlier work
liver [3] = conditions: mouse; cited from earlier work
liver [4] = conditions: dog; cited from earlier work
liver [5] = conditions: human, dose corresponding to 360 mg of iodine/kg; cited from earlier work
liver [6] = conditions: cited from earlier work; for concentration in the liver (fold), at 50 μg of iodine/ml: 50 μg of iodine/ml of plasma; for concentration in the liver versus plasma, at 500 μg of iodine/ml: 500 μg of iodine/ml of plasma
[7] = humans; cited from earlier work
liver [8] = conditions: human, maximum compatible dose corresponding to about 7 g of iodine/70 kg; cited from earlier work
liver metastases = test: liver CT of human patients with known liver metastases (Example 19); assay type: in vivo
Protocol: Gd-EOB-DTPA ([…]) was administered intravenously in an intravenous drip in the arm vein. The infusion time was 20 minutes for the dosages of 0.2 and 0.35 mmol/kg and 30 minutes for the maximum dose of 0.5 mmol/kg. […] Exclusion criteria for the patients were: […] The entire liver was measured within 20-30 seconds of a pause in breathing. The table feed rate was 8 mm/sec, the collimation 8 mm. Using a basis of pre-contrast and post-contrast images, two independent observers evaluated the number and size of the metastases qualitatively (excellent, good, moderate, minimal, no improvement) and quantitatively (measurement of the Houndsfield units).

[9] = compatibility (overall condition, vital parameters, laboratory analysis of serum and urine) in patients (Example 19); assay type: in vivo, human
Protocol: Fifteen human patients with known liver metastases were examined in the liver-CT 10 minutes, 60 minutes and (N=5) 120 minutes after intravenous infusion of 0.2, 0.35 or 0.5 mmol/kg of Gd-EOB-DTPA (see Example 16).
Gd-EOB-DTPA ([…]) was administered intravenously in an intravenous drip in the arm vein. The infusion time was 20 minutes for the dosages of 0.2 and 0.35 mmol/kg and 30 minutes for the maximum dose of 0.5 mmol/kg.
The compatibility of Gd-EOB-DTPA was determined by determining the overall condition, the recording of vital parameters and a laboratory analysis of serum and urine parameters.

healthy liver parenchyma = test: density enhancement of the healthy liver parenchyma in CT after infusion, patients with liver metastases (Example 16); assay type: in vivo, human; conditions: 0.35 mmol/kg, 0.25 molar solution, individual patients 1-5 (one line per patient), disodium salt
Protocol: Density enhancement of the healthy liver parenchyma 10 and 60 minutes after infusion of a 0.25 molar solution of the gadolinium(III) complex of the 3,6,9-triaza-3,6,9-tris(carboxymethyl)-4-(4-ethoxybenzyl)-undecanedioic acid disodium salt (Gd-EOB-DTPA, described in Example 8c of EP 0405704) in the case of 5 human patients with liver metastases in a dose of 0.35 mmol/kg in Houndsfield units (HU). This dose corresponds to about 16 g of the complex per 70 kg of patient.

[10] = 0.2, 0.35 or 0.5 mmol/kg i.v. infusion

For `CCOc1ccc(CC(CN(CC(=O)[O-])CC(Cc2ccc(OCC)cc2)N(CC(=O)[O-])CC(=O)[O-])N(CC(=O)[O-])CC(=O)[O-])cc1.[Na+].[Na+].[Yb+3]` (stereo not drawn) [Example 4e, Ytterbium complex of the disodium salt of 3,6,9-triaza-3,6,9-tris-(carboxymethyl)-4,8-bis-(4-ethoxybenzyl)-undecanedioic acid], the LD50 (mice) was “approximately 15 mmol/kg of body weight”.
In the case of `CCOc1ccc(CC(CN(CCN(CC(=O)[O-])CC(=O)[O-])CC(=O)[O-])N(CC(=O)[O-])CC(=O)[O-])cc1.[Dy+3].[Na+].[Na+]` (stereo not drawn) [Dy], the “density (HU ± SD), 50 mmol/L” value [1] is reported as 226 HU and the “density (HU ± SD), 500 mmol/L” value [1] is reported as 1840 HU.
With `CCOc1ccc(CC(CN(CCN(CC(=O)[O-])CC(=O)[O-])CC(=O)[O-])N(CC(=O)[O-])CC(=O)[O-])cc1.[Er+3].[Na+].[Na+]` (stereo not drawn) [Er] the “density (HU ± SD), 50 mmol/L” value [1] was 254 HU and the “density (HU ± SD), 500 mmol/L” value [1] was 1955 HU.
In the case of `CNC(=O)c1c(I)c(NC(=O)COCC(=O)N(C)c2c(I)cc(I)c(C(=O)O)c2I)c(I)c(C(=O)O)c1I` [SH L 433], the “enhancement of the liver” value (liver [2]) is given as > 40 HU, the “enhancement of the liver” value (liver [3]) is given as > 40 HU and the “enhancement of the liver” value (liver [4]) is given as > 40 HU. The “enhancement of the liver” value (liver [5]) was < 10 HU.
For `CCOc1ccc(CC(CN(CCN(CC(=O)[O-])CC(=O)[O-])CC(=O)[O-])N(CC(=O)[O-])CC(=O)[O-])cc1.[Na+].[Na+].[Tb+3]` (stereo not drawn) [Tb], the “density (HU ± SD), 50 mmol/L” value [1] was 228 HU and the “density (HU ± SD), 500 mmol/L” value [1] was 1760 HU.
For `O=C(COCCOCCOCC(=O)Nc1c(I)cc(I)c(C(=O)O)c1I)Nc1c(I)cc(I)c(C(=O)O)c1I` [iotroxinate], the “concentration in the liver (fold), at 5 μg of iodine per ml of plasma” value (liver [6]) is listed as 5 -fold, the “concentration in the liver (fold), at 50 μg of iodine/ml” value (liver [6]) is listed as ~2 -fold and the “concentration in the liver versus plasma, at 500 μg of iodine/ml” value (liver [6]) is listed as “considerably lower than in the plasma”. For the same compound, the “excreted via the bile ducts” value [7] was “about 90%” and the “enhancement in the liver” value (liver [8]) was 15 HU.
For `CCOc1ccc(CC(CN(CCN(CC(=O)[O-])CC(=O)[O-])CC(=O)[O-])N(CC(=O)[O-])CC(=O)[O-])cc1.[Ho+3].[Na+].[Na+]` (stereo not drawn) [Ho], the “density (HU ± SD), 50 mmol/L” value [1] was 221 HU and the “density (HU ± SD), 500 mmol/L” value [1] was 1890 HU.
For `CCOc1ccc(CC(CN(CCN(CC(=O)[O-])CC(=O)[O-])CC(=O)[O-])N(CC(=O)[O-])CC(=O)[O-])cc1.[Na+].[Na+].[Yb+3]` (stereo not drawn) [Yb, Ytterbium complex of the disodium salt of 3,6,9-triaza-3,6,9-tris-(carboxymethyl)-4-(4-ethoxybenzyl)-undecanedioic acid], the “density (HU ± SD), 50 mmol/L” value [1] was 252 HU and the “density (HU ± SD), 500 mmol/L” value [1] was 1980 HU.
For `CCOc1ccc(CC(CN(CCN(CC(=O)[O-])CC(=O)[O-])CC(=O)[O-])N(CC(=O)[O-])CC(=O)[O-])cc1.[Gd+3].[Na+].[Na+]` (stereo not drawn) [Gd-EOB-DTPA, gadolinium(III) complex of the 3,6,9-triaza-3,6,9-tris(carboxymethyl)-4-(4-ethoxybenzyl)-undecanedioic acid disodium salt], the “visualization of the metastases, all dose groups” value (liver metastases; 0.2, 0.35 and 0.5 mmol/kg) was “improved”, the “CT density of the healthy liver” value (liver metastases; [10]) was “dose-dependent increase” and the “CT density of the metastases” value (liver metastases; [10]) was “unchanged”. The “visualization of the metastases, two upper dose groups” value (liver metastases; 0.35 and 0.5 mmol/kg) was “excellent”, the “visualization of the gallbladder and the bile ducts” value (liver metastases; after i.v. infusion) was “possible” and the “additional metastases discovered, on the average” value (liver metastases; maximum dose (0.5 mmol/kg)) was “two”. The “average size of the smallest metastases found” value (liver metastases; maximum dose, decreased from 20.3 mm) was 16.6 mm, the “diameter of additional lesion detected” value (liver metastases; one patient, left lobe of the liver, previously not found) was 7 mm and the “summary as liver or gallbladder contrast medium for CT” value (liver metastases; summary statement) was “well-tolerated and effective”. The “density (HU ± SD), 50 mmol/L” value [1] was 218 HU, the “density (HU ± SD), 500 mmol/L” value [1] was 1680 HU and the other side effects ([9]; 0.2, 0.35 or 0.5 mmol/kg) was “nausea and a sensation of pressure in the epigastric region”. The general compatibility ([9]; 0.2, 0.35 or 0.5 mmol/kg i.v. infusion, 15 patients) was “good”, the “mild or moderate side effects observed (number)” value ([9]; 0.2, 0.35 or 0.5 mmol/kg, 15 patients) was “four” and the “burning sensation at the infusion site or retrograde therefrom (cases)” value ([9]; persisted for a few seconds or minutes) was “two”. The “slight increases of aspartate transferase and alaninamino transferase (patients)” value ([9]; probably caused by the liver metastases) was “three”, the “evaluation of the laboratory parameters” value ([9]; serum and urine parameters) was “no precise trend” and the “Density enhancement of the healthy liver parenchyma, 10 minutes p. inf.” value (healthy liver parenchyma; 10 minutes after infusion) was 19 HU and 12 HU and 10 HU and 18 HU and 15 HU. For the same compound, the “Density enhancement of the healthy liver parenchyma, 60 minutes p. inf.” value (healthy liver parenchyma; 60 minutes after infusion) was 26 HU and 25 HU and 17 HU and 32 HU.
For `O=C(COCC(=O)Nc1c(I)cc(I)c(C(=O)O)c1I)Nc1c(I)cc(I)c(C(=O)O)c1I` [ioglycamate], the “concentration in the liver (fold), at 5 μg of iodine per ml of plasma” value (liver [6]) is listed as 5 -fold, the “concentration in the liver (fold), at 50 μg of iodine/ml” value (liver [6]) is listed as ~2 -fold and the “concentration in the liver versus plasma, at 500 μg of iodine/ml” value (liver [6]) is listed as “considerably lower than in the plasma”.
